“And” between values parts separate entries of the source, which are not always exact repeats. Equal entries are not always repeated. Inconclusive results and toxic doses are left out. Rule as the data show it: active = T/C of 150% or more; inactive = T/C below 125%.
System: L1210 leukemia ip in BDF1 mice, survival T/C
Test: NCI In Vivo Anticancer Drug Screen. Data for tumor model L1210 Leukemia (intraperitoneal) in B6D2F1 (BDF1) mice
Details: endpoint: mean survival time, higher = longer survival
Procedure, shortened: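 Read-out is survival time, reported as the treated-group measurement over the vehicle-control measurement.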

[1] = dose: 100.0 mg/kg/injection, schedule: Q01DX001 (ip), vehicle: other
[2] = dose: 200.0 mg/kg/injection, schedule: Q01DX001 (ip), vehicle: other
[3] = dose: 400.0 mg/kg/injection, schedule: Q01DX001 (ip), vehicle: other
[4] = dose: 100.0 mg/kg/injection, schedule: Q01DX001 (ip), vehicle: saline
[5] = dose: 200.0 mg/kg/injection, schedule: Q01DX001 (ip), vehicle: saline
[6] = dose: 50.0 mg/kg/injection, schedule: Q04DX002 (ip), vehicle: Klucel (hydroxypropylcellulose) (HPC)
[7] = dose: 100.0 mg/kg/injection, schedule: Q04DX002 (ip), vehicle: Klucel (hydroxypropylcellulose) (HPC)
[8] = dose: 200.0 mg/kg/injection, schedule: Q04DX002 (ip), vehicle: Klucel (hydroxypropylcellulose) (HPC)
[9] = dose: 100.0 mg/kg/injection, schedule: Q04DX003 (ip), vehicle: Klucel (hydroxypropylcellulose) (HPC)
[10] = dose: 200.0 mg/kg/injection, schedule: Q04DX003 (ip), vehicle: Klucel (hydroxypropylcellulose) (HPC)
[11] = dose: 400.0 mg/kg/injection, schedule: Q04DX003 (ip), vehicle: Klucel (hydroxypropylcellulose) (HPC)
[12] = dose: 100.0 mg/kg/injection, schedule: Q01DX009 (ip), vehicle: Klucel (hydroxypropylcellulose) (HPC)
[13] = dose: 200.0 mg/kg/injection, schedule: Q01DX009 (ip), vehicle: Klucel (hydroxypropylcellulose) (HPC)
[14] = dose: 25.0 mg/kg/injection, schedule: Q01DX009 (ip), vehicle: saline
[15] = dose: 25.0 mg/kg/injection, schedule: Q04DX003 (ip), vehicle: saline
[16] = dose: 50.0 mg/kg/injection, schedule: Q01DX009 (ip), vehicle: saline
[17] = dose: 50.0 mg/kg/injection, schedule: Q04DX003 (ip), vehicle: saline
[18] = dose: 400.0 mg/kg/injection, schedule: Q01DX009 (ip), vehicle: Klucel (hydroxypropylcellulose) (HPC)
[19] = dose: 400.0 mg/kg/injection, schedule: Q04DX002 (ip), vehicle: Klucel (hydroxypropylcellulose) (HPC)

Measured: T/C

O=C1OC(c2ccc([N+](=O)[O-])cc2)=N/C1=C\c1ccc(Cl)cc1
inactive: dose: 100.0 mg/kg/injection, schedule: Q01DX009 (ip), vehicle: saline 94 % of control | dose: 100.0 mg/kg/injection, schedule: Q04DX002 (ip), vehicle: saline 89 % of control | dose: 200.0 mg/kg/injection, schedule: Q01DX009 (ip), vehicle: saline 91 % of control | dose: 200.0 mg/kg/injection, schedule: Q04DX002 (ip), vehicle: saline 92 % of control | dose: 400.0 mg/kg/injection, schedule: Q01DX009 (ip), vehicle: saline 91 % of control | dose: 400.0 mg/kg/injection, schedule: Q04DX002 (ip), vehicle: saline 92 % of control

O=C(Cl)CNS(=O)(=O)c1ccccc1
inactive: [1] 106 % of control | [2] 108 % of control | [3] 111 % of control

O=c1cc(CO)oc(C(Nc2ccccc2)c2ccccc2)c1O (stereo not given)
inactive: [4] 91 % of control | [5] 97 % of control | dose: 400.0 mg/kg/injection, schedule: Q01DX001 (ip), vehicle: saline 95 % of control

Cn1c(Cl)c(C(=O)O)c2ccccc21
inactive: [6] 97 % of control | [7] 97 % of control | [8] 101 % of control

NC(=O)C(CCC(=O)O)NC(=O)OCc1ccccc1 (stereo not given)
inactive: dose: 25.0 mg/kg/injection, schedule: Q04DX002 (ip), vehicle: Klucel (hydroxypropylcellulose) (HPC) 100 % of control | [6] 92 % of control | [7] 100 % of control

CC1CN1CCC(=O)Nc1ccc(Cl)c(Cl)c1 (stereo not given)
inactive: dose: 50.0 mg/kg/injection, schedule: Q04DX003 (ip), vehicle: Klucel (hydroxypropylcellulose) (HPC) 97 % of control | [9] 105 % of control | [10] 100 % of control | [11] 106 % of control

CC(=O)C(Cl)C(C)=O.CC(=O)C(Cl)C(C)=O.CO.CO.[Ni]
inactive: dose: 12.0 mg/kg/injection, schedule: Q01DX009 (ip), vehicle: other 91 % of control | dose: 25.0 mg/kg/injection, schedule: Q01DX009 (ip), vehicle: other 93 % of control | [4] 112 % of control | [5] 89 % of control

C(=N\Nc1nnc(N/N=C/C2CCCCC2)c2ccccc12)/C1CCCCC1
inactive: dose: 50.0 mg/kg/injection, schedule: Q01DX001 (ip), vehicle: saline 100 % of control

COc1cccc(C)c1NC1=NCCO1
inactive: dose: 1.56 mg/kg/injection, schedule: Q01DX009 (ip), vehicle: saline with Tween-80 97 % of control | dose: 1.56 mg/kg/injection, schedule: Q04DX003 (ip), vehicle: saline with Tween-80 97 % of control | dose: 3.13 mg/kg/injection, schedule: Q01DX009 (ip), vehicle: saline with Tween-80 116 % of control | dose: 3.13 mg/kg/injection, schedule: Q04DX003 (ip), vehicle: saline with Tween-80 100 % of control | dose: 6.25 mg/kg/injection, schedule: Q01DX009 (ip), vehicle: saline with Tween-80 101 % of control | dose: 6.25 mg/kg/injection, schedule: Q04DX003 (ip), vehicle: saline with Tween-80 100 % of control and 101 % of control | dose: 25.0 mg/kg/injection, schedule: Q04DX003 (ip), vehicle: saline with Tween-80 96 % of control

Cc1cc(Cl)c([N+](=O)[O-])c(P(=O)(O)O)c1
inactive: dose: 75.0 mg/kg/injection, schedule: Q01DX001 (ip), vehicle: saline 90 % of control | dose: 150.0 mg/kg/injection, schedule: Q01DX001 (ip), vehicle: saline 90 % of control | dose: 300.0 mg/kg/injection, schedule: Q01DX001 (ip), vehicle: saline 96 % of control

CN(C)C=Nc1cccc2cn[nH]c12
inactive: dose: 100.0 mg/kg/injection, schedule: Q04DX002 (ip), vehicle: saline with Tween-80 106 % of control | dose: 200.0 mg/kg/injection, schedule: Q04DX002 (ip), vehicle: saline with Tween-80 106 % of control | dose: 400.0 mg/kg/injection, schedule: Q04DX002 (ip), vehicle: saline with Tween-80 98 % of control

Cc1cc(C)c(S(=O)(=O)NN)c(C)c1
inactive: dose: 100.0 mg/kg/injection, schedule: Q04DX003 (ip), vehicle: saline with Tween-80 94 % of control | dose: 200.0 mg/kg/injection, schedule: Q04DX003 (ip), vehicle: saline with Tween-80 90 % of control

CCCCCN(C)N=Nc1ccccc1C(N)=O
inactive: [1] 106 % of control | [12] 114 % of control | [9] 109 % of control | [2] 112 % of control | [13] 115 % of control | [10] 101 % of control | [3] 115 % of control | [11] 112 % of control

O=C(Nc1ccccc1)NC1CCCCC1
inactive: dose: 100.0 mg/kg/injection, schedule: Q01DX001 (ip), vehicle: Klucel (hydroxypropylcellulose) (HPC) 100 % of control | dose: 200.0 mg/kg/injection, schedule: Q01DX001 (ip), vehicle: Klucel (hydroxypropylcellulose) (HPC) 95 % of control | dose: 400.0 mg/kg/injection, schedule: Q01DX001 (ip), vehicle: Klucel (hydroxypropylcellulose) (HPC) 101 % of control

CSc1nc(C)cc(SC(=N)N)n1
inactive: [14] 105 % of control | [15] 98 % of control | [16] 102 % of control | [17] 97 % of control | dose: 100.0 mg/kg/injection, schedule: Q04DX003 (ip), vehicle: saline 100 % of control and 101 % of control

CC(=O)Nc1ccc2c(c1)C(C)c1ccccc1-2 (stereo not given)
inactive: dose: 100.0 mg/kg/injection, schedule: Q01DX001 (ip), vehicle: carboxymethylcellulose (CMC) 89 % of control | dose: 200.0 mg/kg/injection, schedule: Q01DX001 (ip), vehicle: carboxymethylcellulose (CMC) 95 % of control | dose: 400.0 mg/kg/injection, schedule: Q01DX001 (ip), vehicle: carboxymethylcellulose (CMC) 93 % of control

NC(=S)Nc1ccc(Cc2ccc(NC(N)=S)cc2)cc1
inactive: [12] 98 % of control | [13] 91 % of control | [18] 88 % of control

CCS/C(N)=N\N
inactive: dose: 12.5 mg/kg/injection, schedule: Q01DX009 (ip), vehicle: saline 95 % of control | [14] 98 % of control | [15] 113 % of control | [16] 104 % of control | [17] 98 % of control

O=C/C(=C/Nc1ccc(C(=O)O)cc1)[N+](=O)[O-]
inactive: [7] 109 % of control | [8] 98 % of control | [19] 98 % of control

COC1C(c2ccccc2)NC(=O)C(Br)(C#N)C1c1ccccc1 (stereo not given)
inactive: dose: 12.5 mg/kg/injection, schedule: Q01DX009 (ip), vehicle: saline with Tween-80 86 % of control | dose: 25.0 mg/kg/injection, schedule: Q01DX009 (ip), vehicle: saline with Tween-80 86 % of control | dose: 50.0 mg/kg/injection, schedule: Q01DX009 (ip), vehicle: saline with Tween-80 86 % of control

CC(C(=O)Nc1ccc(Cl)c(Cl)c1)C(=O)Nc1ccc(Cl)c(Cl)c1
inactive: dose: 100.0 mg/kg/injection, schedule: Q04DX002 (ip), vehicle: gum acacia 92 % of control | dose: 200.0 mg/kg/injection, schedule: Q04DX002 (ip), vehicle: gum acacia 103 % of control | dose: 400.0 mg/kg/injection, schedule: Q04DX002 (ip), vehicle: gum acacia 99 % of control

CC(=O)OC1(C(C)=O)CCC2C3CC(C)(O)C4=CC(=O)CCC4(C)C3CCC21C (stereo not given)
inactive: dose: 25.0 mg/kg/injection, schedule: Q01DX009 (ip), vehicle: Klucel (hydroxypropylcellulose) (HPC) 97 % of control | dose: 50.0 mg/kg/injection, schedule: Q01DX009 (ip), vehicle: Klucel (hydroxypropylcellulose) (HPC) 95 % of control | [12] 103 % of control | [13] 101 % of control

O=[N+]([O-])c1cccc(N=Nc2ccc(O)cc2)c1
inactive: [12] 102 % of control | dose: 130.0 mg/kg/injection, schedule: Q01DX009 (ip), vehicle: Klucel (hydroxypropylcellulose) (HPC) 106 % of control

O=S(=O)(O)c1ccc2cc(O)c(O)cc2c1
inactive: [7] 91 % of control | [8] 95 % of control | [19] 95 % of control

O=C(CCBr)Nc1ccc(Cl)cc1C(=O)c1ccccc1
inactive: [12] 102 % of control | [13] 97 % of control | [18] 100 % of control

Source: PubChem BioAssay AID248 (DTP/NCI, 2004)
